According to patent publication US11653649B2, “Antimicrobial composition including a dihydroxamic acid and methods of inhibiting microbial growth utilizing the same” (Kimberly-Clark Worldwide, Inc., priority 2017, dated 2023):
Marks after values point to notes of the source that are not given here.

Key:
[1] = tested on: Pseudomonas aeruginosa (ATCC 9027); test: Anti-bacterial MIC, microbroth dilution; assay type: cell-based; settings: for MIC v. P. aeruginosa: Tables 4 and 5, rounded values, wt %; for MIC (%) P. aeruginosa: pH 4.5, CAMHB, 37° C., 24 hours
Experimental: (§1) Method: Microbroth Dilution Method (96-well format).
(§2) Solvent: Sterile MilliQ water and 0.1 M Citrate Buffer pH 4.5
(§3) Media used: • Bacterial: Cation-Adjusted Mueller-Hinton Broth (CAMHB) • Fungi: RPMI-1640
(§4) Bacteria • Incubation Temperature: 37° C. • Incubation Time: 24 hours • Inoculum Size: 5×10(5) cfu/mL • Strains: • Staphylococcus aureus (ATCC 6538) • Escherichia coli (ATCC 8739) • Pseudomonas aeruginosa (ATCC 9027) • Burkholderia cepacia (ATCC 25416)
(§5) Fungi: • Incubation Temperature: • 25° C. (Candida albicans) • 35° C. […] . All solubilized and pH 4.5-adjusted test compounds were filter-sterilized before subjecting to MIC study. Positive control was also dissolved in the similar way. […] All the strains were inoculated on their respective agar medium and incubated under conditions/durations detailed above. • Preparation of inoculum: • The bacterial colony suspension in 0.85% saline was adjusted to 1 McFarland's standard using Densimat which was further diluted to 1:100 in CAMHB. The fungal suspension for inoculation was prepared in 0.85% saline from 6 days old culture (for mold, A. brasiliensis) and from 2 days old culture (for yeast, C. albicans) from Sabouraud Dextrose agar medium. Culture was scrapped/scooped from the plate, suspended in saline and the spores/cells counted using haemocytometer to provide a final inoculum of 5×10^4 cfu/mL. • 96-well Plate Preparation: • Minimum inhibitory concentration (MIC) is performed to determine potency of test compounds along with standard antibiotics against bacterial strains. Micro titer plates were prepared as per the CLSI recommendations. One hundred and seventy five microliters of Cation-adjusted Muller Hinton Broth (CAMHB) was added to the first column of a 96 well flat bottom plate, which is the media control. Second column is for the stocks of the test compounds and reference standards from which dilutions are made. Then 175 μL of CAMHB was added to the 5th, 8th and 11th columns, 75 μL of CAMHB to the 4th, 7th and 10th columns and 50 μL of CAMHB to the 3rd, 6th and 9th columns and the last column was the organism control. Antimicrobial Efficacy Testing

[2] = tested on: Staphylococcus aureus (ATCC 6538); test: Anti-bacterial MIC, microbroth dilution; assay type: cell-based; settings: pH 4.5, CAMHB, 37° C., 24 hours
Experimental: as §1, §2, §3, §4, §5

[3] = tested on: Burkholderia cepacia (ATCC 25416); test: Anti-bacterial MIC, microbroth dilution; assay type: cell-based; settings: pH 4.5, CAMHB, 37° C., 24 hours
Experimental: as §1, §2, §3, §4, §5

[4] = tested on: Escherichia coli (ATCC 8739); test: Anti-bacterial MIC, microbroth dilution; assay type: cell-based; settings: pH 4.5, CAMHB, 37° C., 24 hours
Experimental: as §1, §2, §3, §4, §5

[5] = tested on: Aspergillus brasiliensis (ATCC 16404); test: Anti-fungal MIC, microbroth dilution; assay type: cell-based; settings: pH 4.5, RPMI-1640, 35° C., 48 hours
Experimental: as §1, §2, §3, §5

[6] = tested on: Candida albicans (ATCC 10231); test: Anti-fungal MIC, microbroth dilution; assay type: cell-based; settings: pH 4.5, RPMI-1640, 25° C., 48 hours
Experimental: as §1, §2, §3, §5

[7] = Determination of Aqueous Solubility (pH-4.5) by Miniaturized Shake Flask Method; assay type: physicochemical; settings: ultrapure water pH 4.5, 22° C., highest test concentration 1% w/v
Experimental: Determination of Aqueous Solubility (pH-4.5) by Miniaturized Shake Flask Method
Test Media: Ultrapure water (pH-4.5) (18MΩDl water)
Test Concentration: 10 mg/ml
Incubation Details: 22° C. +/−3° C.
Method of Analysis: Photometric analysis using Microplate reader
Data Output: Aqueous Solubility
Required volume of ultrapure water (˜75 mL) was taken and pH was adjusted to 4.5 using citrate buffer (pH-4.5). This water was used as a test media for determining the solubility of test/reference items.
Solubility Testing by Shake Flask Method
The solubility of test items were determined at a highest test concentration of 1% w/v (10 mg/mL).
40 mg of test items were weighed into tubes.
4 mL of Ultrapure water was added to all tubes to get a concentration of 10 mg/mL (1% w/v).
The initial pH of the solubility samples were recorded. […] Then, the solution were observed visually for any precipitation.
The visually soluble samples were centrifuged at 10000 rpm for 10 minutes at room temperature (22° C.±3° C.).
An aliquot of the supernatant were diluted with equal volume of methanol. The samples were further diluted in methanol: water (50:50) to obtain dilution of 1:2, 1:4, 1:16, 1:32 etc.
The samples were then transferred to UV plate and scanned at Amax of that particular test/reference item.

[8] = tested on: various bacteria and fungi; test: Antimicrobial Efficacy Testing (USP 51), overall outcome; assay type: cell-based; settings: USP 51, 28 days
Source text: The Antimicrobial Efficacy Testing discussed herein was completed pursuant to the standard antimicrobial effectiveness test from Chapter 51 of the United States Pharmacopeia (USP 51), in which an antimicrobial composition can be tested against at least five microorganisms, including bacteria and fungi. In the Antimicrobial Efficacy Testing conducted herein, the following bacteria were utilized: Staphylococcus aureus, Escherichia coli, Pseudomonas aeruginosa, and Burkholderia cepacia; and the following fungi were utilized: Candida albicans, and Aspergillus brasiliensis. While one of ordinary skill in the art could replicate such Antimicrobial Efficacy Testing by completing USP 51 protocol, a brief summary was that each antimicrobial composition sample was tested against each microorganism being held at room temperature over the course of 28 days, with each sample being evaluated at specific intervals at the beginning of the Testing (initial), day 7, day 14, and day 28. The test sample colonies were counted at each interval to determine the number of surviving microorganisms. The log reduction of each microorganism at each interval was reported. The effectiveness of the antimicrobial agent sample was based on the USP 51 passing criteria.

## O=C(NO)c1ccccc1 [Compound No. 5, Benzhydroxamic Acid]
[1]
  MIC v. P. aeruginosa: 0.06%
  MIC (%) P. aeruginosa: 0.0625%
[2]
  MIC (%) S. Aureus: 0.125%
[3]
  MIC (%) B. cepacia: 0.125%
[4]
  MIC (%) E. coli: 0.25%
[5]
  MIC (%) A. brasiliensis: 0.016%
[6]
  MIC (%) C. albicans: 0.031%
[7]
  Solubility (wt %): >1.00 wt %

## OCCc1ccccc1 [Phenethyl Alcohol, reference compound]
[1]
  MIC v. P. aeruginosa: 0.41%

## CC(=O)C1C(=O)C=C(C)OC1=O (stereo not shown) [Dehydroacetic Acid, reference compound]
[1]
  MIC v. P. aeruginosa: 2.00%

## O=C(NO)c1ccc(O)cc1 [Compound No. 6, p-hydroxy Benzhydroxamic Acid]
[1]
  MIC v. P. aeruginosa: 0.06%
  MIC (%) P. aeruginosa: 0.0625%
[2]
  MIC (%) S. Aureus: 0.125%
[3]
  MIC (%) B. cepacia: 0.031%
[4]
  MIC (%) E. coli: 0.0625%
[5]
  MIC (%) A. brasiliensis: 0.25%
[6]
  MIC (%) C. albicans: >1.00* %
[7]
  Solubility (wt %): >1.00 wt %

## O=[N+]([O-])C(Br)(CO)CO [2-Bromo-2-Nitropropane-1,3-Diol, reference compound]
[1]
  MIC v. P. aeruginosa: 0.00%

## Cn1sccc1=O [Methylisothiazolinone, reference compound]
[1]
  MIC v. P. aeruginosa: 0.00%

## CCCCCC(=O)NO [Compound No. 1, Hexylhydroxamic Acid]
[1]
  MIC v. P. aeruginosa: 0.06%
  MIC (%) P. aeruginosa: 0.0625%
[2]
  MIC (%) S. Aureus: 0.25%
[3]
  MIC (%) B. cepacia: 0.0625%
[4]
  MIC (%) E. coli: 0.125%
[5]
  MIC (%) A. brasiliensis: 0.008%
[6]
  MIC (%) C. albicans: 0.031%
[7]
  Solubility (wt %): >1.00 wt %

## CCCCCCCCCCCC(=O)NO [compound 2, Laurylhydroxamic Acid]
[1]
  MIC (%) P. aeruginosa: >0.0011* %
[2]
  MIC (%) S. Aureus: >0.0011* %
[3]
  MIC (%) B. cepacia: >0.0011* %
[4]
  MIC (%) E. coli: >0.0011* %
[5]
  MIC (%) A. brasiliensis: >0.0011* %
[6]
  MIC (%) C. albicans: >0.0011* %
[7]
  Solubility (wt %): 0.0022 wt %

## O=C(CCCCCCC(=O)NO)NO [Compound No. 9, N, N′-dihydroxyoctanediamide]
[1]
  MIC v. P. aeruginosa: >0.12%*
  MIC (%) P. aeruginosa: >0.124* %
[2]
  MIC (%) S. Aureus: >0.124* %
[3]
  MIC (%) B. cepacia: >0.124* %
[4]
  MIC (%) E. coli: >0.124* %
[5]
  MIC (%) A. brasiliensis: >0.124* %
[6]
  MIC (%) C. albicans: >0.124* %
[7]
  Solubility (wt %): 0.248 wt %
[8]
  Antimicrobial Efficacy Testing outcome (inhibiting growth of various bacteria and fungi): did not pass

## Propylhydroxamic Acid [reference compound]
[1]
  MIC v. P. aeruginosa: 0.50%

## O=C(CC(O)C(=O)NO)NO (stereo not shown) [Compound No. 7, N, N′, 2-trihydroxy butane diamide]
[1]
  MIC v. P. aeruginosa: 0.03%
  MIC (%) P. aeruginosa: 0.031%
[2]
  MIC (%) S. Aureus: 0.008%
[3]
  MIC (%) B. cepacia: 0.016%
[4]
  MIC (%) E. coli: 0.016%
[5]
  MIC (%) A. brasiliensis: 0.008%
[6]
  MIC (%) C. albicans: 0.008%
[7]
  Solubility (wt %): >1.00 wt %

## COC(=O)c1ccc(O)cc1 [Methylparaben, reference compound]
[1]
  MIC v. P. aeruginosa: 0.20%

## CCCCCCCCCC(=O)NO [Compound No. 3, Decylhydroxamic Acid]
[1]
  MIC v. P. aeruginosa: >0.00125%*
  MIC (%) P. aeruginosa: >0.00125* %
[2]
  MIC (%) S. Aureus: >0.00125* %
[3]
  MIC (%) B. cepacia: >0.00125* %
[4]
  MIC (%) E. coli: >0.00125* %
[5]
  MIC (%) A. brasiliensis: >0.00125* %
[6]
  MIC (%) C. albicans: >0.00125* %
[7]
  Solubility (wt %): 0.0025 wt %

## O=C(NCO)N(CO)C1(CO)C(=O)NC(=O)N1CO (stereo not shown) [Diazolidinyl Urea, reference compound]
[1]
  MIC v. P. aeruginosa: 0.10%

## CCCCCCCC(=O)NO [Caprylhydroxamic Acid, reference compound]
[1]
  MIC v. P. aeruginosa: 0.07%
  MIC (%) P. aeruginosa: 0.0679%
[2]
  MIC (%) S. Aureus: 0.034%
[3]
  MIC (%) B. cepacia: 0.017%
[4]
  MIC (%) E. coli: 0.017%
[5]
  MIC (%) A. brasiliensis: 0.004%
[6]
  MIC (%) C. albicans: 0.008%
[7]
  Solubility (wt %): 0.1358 wt %

## O=C(O)c1ccccc1 [Benzoic Acid, reference compound]
[1]
  MIC v. P. aeruginosa: 0.07%

## OCc1ccccc1 [Benzyl Alcohol, reference compound]
[1]
  MIC v. P. aeruginosa: 0.35%

## O=C(CCC(=O)NO)NO [Compound No. 8, N, N′-dihydroxysuccinamide]
[1]
  MIC v. P. aeruginosa: 0.06%
  MIC (%) P. aeruginosa: 0.0625%
[2]
  MIC (%) S. Aureus: 0.016%
[3]
  MIC (%) B. cepacia: 0.031%
[4]
  MIC (%) E. coli: 0.031%
[5]
  MIC (%) A. brasiliensis: 0.031%
[6]
  MIC (%) C. albicans: 0.25%
[7]
  Solubility (wt %): >1.00 wt %

## CC1(C)C(=O)N(CO)C(=O)N1CO [DMDM Hydantoin, reference compound]
[1]
  MIC v. P. aeruginosa: 0.02%
